Results taken from ChEMBL document CHEMBL1201862, “PubChem BioAssay data set” (2004).
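Cultured in 96-well plates, cells were exposed to test compound for 48 hours across five concentrations. GI50 is the concentration that inhibits growth by half.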 Calls of active or inactive are those of the source. Cut-off read from the data, not from the text of the source: active = GI50 up to about 1.1 µM and inactive = higher.

What was measured:
Test in all cases: growth of human tumour cells (NCI), 48 h
BT-549 = tested on: BT-549
DLD-1 = tested on: DLD-1
DMS-273 = tested on: DMS-273
KM-20L2 = tested on: KM-20L2
M19-MEL = tested on: M19-MEL
SNB-78 = tested on: SNB-78
XF498 = tested on: XF498
HOP-18 = tested on: HOP-18

## C=C1C(=O)O[C@@H]2C[C@@H](C)[C@@H]3C=CC(=O)[C@@]3(C)[C@@H](OC(=O)CCCC(=O)O[C@H]3[C@@H]4C(=C)C(=O)O[C@@H]4C[C@@H](C)[C@@H]4C=CC(=O)[C@]43C)[C@H]12
BT-549
  GI50: 0.0252 µM (active)

## O=C1Nc2ccccc2/C1=N\c1cccc2ncccc12
BT-549
  GI50: > 100 µM (inactive)

## OCCCSCCO
BT-549
  GI50: > 100 µM (inactive)

## CC(C)(N)CO[C@H]1C[C@H]2CC[C@@]1(C)C2(C)C
BT-549
  GI50: 23.1 µM (inactive)

## C=C1C[C@@H]2O[C@H]3[C@H]4[C@@H](C[C@@H](C)[C@@H](OC(C)=O)[C@H]42)[C@@H](C)CO[C@@]3(C)[C@H](OC(C)=O)C[C@H]1O
BT-549
  GI50: 63.4 µM (inactive)

## COc1ccc(SC(C)(SC)c2ccccn2)c(OC)n1 (stereo unspecified)
BT-549
  GI50: 64.9 µM (inactive)

## COc1cccc(Cc2cc(=O)c3ccc(C)nc3[nH]2)c1
BT-549
  GI50: 94.8 µM (inactive)

## O=C1C=C(N2CCN(CCOCCO)CC2)C(=O)c2c(O)ccc(O)c21
BT-549
  GI50: 11.9 µM (inactive)

## O=C(NCP(=O)(Oc1ccccc1)Oc1ccccc1)OCc1ccccc1
BT-549
  GI50: > 100 µM (inactive)

## Cc1ccc(I)cc1N=C=S
BT-549
  GI50: 13.3 µM (inactive)

## CCOC(=O)C1N(S(=O)(=O)c2ccc(C)cc2)CCC12c1ccccc1NC2c1ccc(OC)c(OC)c1 (stereo unspecified)
DLD-1
  GI50: > 100 µM (inactive)
DMS-273
  GI50: > 100 µM (inactive)
KM-20L2
  GI50: > 100 µM (inactive)
M19-MEL
  GI50: > 100 µM (inactive)
SNB-78
  GI50: > 100 µM (inactive)
XF498
  GI50: 79.8 µM (inactive)

## O=C1C=CC(=O)C(CNc2ccc(C(=O)OC34CC5CC(CC(C5)C3)C4)cc2)=C1Br
BT-549
  GI50: 5.33 µM (inactive)

## CC(C)(C)C1=CC(=C2C(=O)C(=O)c3ccccc3C2=O)C=C(C(C)(C)C)C1=O
DLD-1
  GI50: 36.6 µM (inactive)
DMS-273
  GI50: 59.8 µM (inactive)
HOP-18
  GI50: 36.2 µM (inactive)
KM-20L2
  GI50: > 100 µM (inactive)
M19-MEL
  GI50: 75.3 µM (inactive)
SNB-78
  GI50: > 100 µM (inactive)

## CCOC(=O)C#Cc1cccc(C#CC(=O)OCC)c1
BT-549
  GI50: 2.28 µM (inactive)

## C=CCCCCCCCCCOC1C=CC(OC(C)=O)C(COC(C)=O)O1 (stereo unspecified)
BT-549
  GI50: 66.4 µM (inactive)

## CC(C)(C)N/N=C(\C(=O)Nc1ccc([N+](=O)[O-])cc1[N+](=O)[O-])c1nc2ccc([N+](=O)[O-])cc2nc1O
BT-549
  GI50: > 100 µM (inactive)

## Cc1nc2cc(N)c(F)cc2[nH]1
DLD-1
  GI50: > 100 µM (inactive)
DMS-273
  GI50: > 100 µM (inactive)
M19-MEL
  GI50: > 100 µM (inactive)
SNB-78
  GI50: > 100 µM (inactive)
XF498
  GI50: > 100 µM (inactive)

## COC1=CC(=O)C2=C(C1=O)[C@H]1CC[C@]3(C)C(=O)CC[C@H]3[C@@H]1CC2
BT-549
  GI50: 19.4 µM (inactive)

## CC(=O)C1=C(N=[N+]=[N-])c2cccc3cccc(c23)C1=O
BT-549
  GI50: 20.8 µM (inactive)

## CO[C@H]1O[C@@H]2CO[C@@H](c3ccccc3)O[C@H]2[C@@H]2CC=CCC[C@]12O
BT-549
  GI50: 24.6 µM (inactive)

## COC(c1ccsc1)C(C#N)(C#N)/N=C/c1ccsc1 (stereo unspecified)
BT-549
  GI50: 17 µM (inactive)

## Cc1ccc2c(=O)c(-c3n[nH]c(=S)s3)c[nH]c2n1
BT-549
  GI50: > 100 µM (inactive)

## CN(/N=C/C=N/N(C)C1=NCCN1)C1=NCCN1
BT-549
  GI50: > 100 µM (inactive)

## CCOC(=O)C(OCC1CC=CCC1)Sc1ccccc1 (stereo unspecified)
DLD-1
  GI50: > 100 µM (inactive)
DMS-273
  GI50: > 100 µM (inactive)
HOP-18
  GI50: > 100 µM (inactive)
KM-20L2
  GI50: > 100 µM (inactive)
M19-MEL
  GI50: > 100 µM (inactive)
SNB-78
  GI50: > 100 µM (inactive)

## C#Cc1ccccc1N1C(=O)C=CC1=O
DLD-1
  GI50: > 100 µM (inactive)
KM-20L2
  GI50: > 100 µM (inactive)
M19-MEL
  GI50: > 100 µM (inactive)
SNB-78
  GI50: > 100 µM (inactive)

## CNC1=Nc2ccccc2C(=O)N2CSCC12 (stereo unspecified)
BT-549
  GI50: > 100 µM (inactive)

## COc1cc2[nH]c(=O)c3cc(C)cc4c(Cl)nc(c1OC)c2c43
BT-549
  GI50: 35 µM (inactive)

## COC(=O)c1nn(-c2ccccc2)c(=O)cc1N=[N+]=[N-]
DMS-273
  GI50: > 100 µM (inactive)
KM-20L2
  GI50: > 100 µM (inactive)
M19-MEL
  GI50: > 100 µM (inactive)
SNB-78
  GI50: > 100 µM (inactive)
XF498
  GI50: > 100 µM (inactive)

## CCOC(=O)N(c1ccccc1)c1cc(=O)n2ccccc2n1
BT-549
  GI50: > 100 µM (inactive)

## COC(=O)CCC(=O)NC1=C(Nc2ccc(OC)cc2)C(=O)c2ccccc2C1=O
BT-549
  GI50: 15.4 µM (inactive)

## CCCC(=O)Nc1cn(COC)c(C(=O)N2C[C@@H]3C[C@]34C2=CC(=O)c2[nH]cc(C)c24)n1
BT-549
  GI50: 7.74 µM (inactive)

## COc1ccc(N(C(=O)Nc2ccc(Cl)c(Cl)c2)C2c3cccn3C(=O)N2c2ccc(Cl)c(Cl)c2)cc1 (stereo unspecified)
BT-549
  GI50: > 100 µM (inactive)

## C/C=C/C(C#N)(Cc1ccccc1)OP1(=O)OC(c2ccccc2)C(C)N1C (stereo unspecified)
BT-549
  GI50: 90.2 µM (inactive)

## O=C1CCSc2nc(-c3ccc4c(c3)OCO4)nn21
BT-549
  GI50: > 10 µM (inactive)

## C=C1C(=O)OC2CCN3CC=C(COC(=O)C(C)(O)C4(CO4)C1C)C23 (stereo unspecified)
BT-549
  GI50: > 100 µM (inactive)

## COc1ccc(N2C(=O)C3c4[nH]c5ccc(C)cc5c4C4CCC(C(C)C)CC4C3C2=O)cc1 (stereo unspecified)
BT-549
  GI50: > 100 µM (inactive)

## O=C1NC2=C(CCCCC/C2=N\O)C12CCCCCC2
DLD-1
  GI50: > 100 µM (inactive)
DMS-273
  GI50: > 100 µM (inactive)
HOP-18
  GI50: > 100 µM (inactive)
M19-MEL
  GI50: > 100 µM (inactive)
SNB-78
  GI50: > 100 µM (inactive)
XF498
  GI50: > 100 µM (inactive)

## O=C(NCCC1CNc2ccccc21)OCc1ccccc1 (stereo unspecified)
BT-549
  GI50: > 100 µM (inactive)

## O=[N+]([O-])c1ccc2c3c1[C@H]1O[C@H]1c1cccc(c1-3)[C@@H]1O[C@H]21
BT-549
  GI50: 1.99 µM (inactive)

## C1OC1CN1CCN(CC2CO2)CC1 (stereo unspecified)
DLD-1
  GI50: > 100 µM (inactive)
DMS-273
  GI50: 16.1 µM (inactive)
HOP-18
  GI50: 66.7 µM (inactive)
KM-20L2
  GI50: > 100 µM (inactive)
M19-MEL
  GI50: > 100 µM (inactive)
SNB-78
  GI50: > 100 µM (inactive)
XF498
  GI50: > 100 µM (inactive)

## COC(=O)c1c(O)ccc2c1c1c(n2Cc2ccc(OC)cc2)C(=O)c2ccccc2C1=O
BT-549
  GI50: 0.0131 µM (active)

## CC(C)NC(C)C(C)c1ccccc1 (stereo unspecified)
DLD-1
  GI50: > 100 µM (inactive)
DMS-273
  GI50: > 100 µM (inactive)
KM-20L2
  GI50: > 100 µM (inactive)
M19-MEL
  GI50: > 100 µM (inactive)
XF498
  GI50: > 100 µM (inactive)

## O=c1c2ccccc2nc(Nc2cccc(Cl)c2)n1/N=C/C=C/c1ccccc1
BT-549
  GI50: > 100 µM (inactive)

## COc1cc(NC(C)CCCN)c2nccc(C)c2c1 (stereo unspecified)
BT-549
  GI50: 15.8 µM (inactive)

## CCCC(=O)Nc1ccc(O)c2c1C1CCCCCC21 (stereo unspecified)
DMS-273
  GI50: > 100 µM (inactive)
HOP-18
  GI50: > 100 µM (inactive)
KM-20L2
  GI50: > 100 µM (inactive)
M19-MEL
  GI50: > 100 µM (inactive)
SNB-78
  GI50: > 100 µM (inactive)
XF498
  GI50: 65 µM (inactive)

## COc1ccccc1C(=O)NO
BT-549
  GI50: > 100 µM (inactive)

## O=C(O)c1ccccc1CC1Cc2cc3c(cc2C1)CCC3
BT-549
  GI50: > 100 µM (inactive)

## COC1CCC(OS(C)(=O)=O)C(C)O1 (stereo unspecified)
BT-549
  GI50: > 10 µM (inactive)

## O=C(O)c1c(-c2ccccc2)c(=O)[nH]c2ccccc12
BT-549
  GI50: > 100 µM (inactive)

## O=C(O)[C@H]1[C@@H](C2CCCCC2)O[C@@H](C2CCCCC2)O[C@H]1C(F)(F)F
BT-549
  GI50: 33.2 µM (inactive)

## CC(C)(C)OC(=O)NC1CC2(C=C(Br)C(=O)C(Br)=C2)OC1=O (stereo unspecified)
BT-549
  GI50: 16.5 µM (inactive)

## CC(C)(C)[Si](C)(C)OCCC1CC2(S(=O)(=O)C3=CC=C=C=C3)ON1CC2S(=O)(=O)c1ccccc1 (stereo unspecified)
BT-549
  GI50: > 10 µM (inactive)

## CN1CCN(c2nc(N)c(Br)c(Cl)n2)CC1
DLD-1
  GI50: > 100 µM (inactive)
DMS-273
  GI50: > 100 µM (inactive)
KM-20L2
  GI50: > 100 µM (inactive)
M19-MEL
  GI50: > 100 µM (inactive)
SNB-78
  GI50: > 100 µM (inactive)
XF498
  GI50: > 100 µM (inactive)

## COc1cccc(-c2cc(O)c3cc(NC(C)=O)ccc3n2)c1
BT-549
  GI50: > 100 µM (inactive)

## COc1cc2ncnc(Nc3cccc(Cl)c3)c2cc1OC [TYRPHOSTIN AG-1478]
BT-549
  GI50: 1.42 µM (inactive)
